According to the NIST ThermoML archive (doi:10.1016/j.jct.2013.09.008):

How the values were obtained:
[1] = wn = mass fraction of the nth substance listed; settings: 101.33 kPa, Liquid; for speed of sound: Frequency=3 MHz, Linear variable-path acoustic interferometer; for mass density: Pycnometric method; for viscosity: Capillary tube (Ostwald / Ubbelohde) method
[2] = 101.33 kPa, Liquid; for speed of sound: Frequency=3 MHz, Linear variable-path acoustic interferometer; for viscosity: Capillary tube (Ostwald / Ubbelohde) method
[3] = mn = molality of the nth substance listed, in mol/kg; settings: 101.33 kPa, Liquid, m2 = 0; for speed of sound: Frequency=3 MHz, Linear variable-path acoustic interferometer; for viscosity: Capillary tube (Ostwald / Ubbelohde) method

O=C[C@H](O)[C@@H](O)[C@H](O)[C@H](O)CO [D-glucose] + O
[1]
Settings	mass density, w1 = 0.025 [kg/m3]	mass density, w1 = 0.05 [kg/m3]	speed of sound, w1 = 0.025 [m/s]	speed of sound, w1 = 0.05 [m/s]	viscosity, w1 = 0.025 [mPa·s]	viscosity, w1 = 0.05 [mPa·s]
293.15 K	–	1016.28	1492.9	–	–	–
298.15 K	1005.91	1014.69	–	1514.3	0.9202	0.9767
303.15 K	1004.61	1013.08	1517.4	1525.1	0.8167	0.8605
308.15 K	1003.21	1011.47	–	1535.7	0.7324	0.7697
313.15 K	1001.61	1009.85	1536.9	1545.6	0.661	0.6945
318.15 K	999.76	–	–	1554.5	0.6035	0.6334

OC[C@H]1O[C@@](CO)(O[C@H]2O[C@H](CO)[C@@H](O)[C@H](O)[C@H]2O)[C@@H](O)[C@@H]1O [D-sucrose] + O
[1]
Settings	mass density, w1 = 0.025 [kg/m3]	mass density, w1 = 0.05 [kg/m3]	speed of sound, w1 = 0.025 [m/s]	speed of sound, w1 = 0.05 [m/s]	viscosity, w1 = 0.025 [mPa·s]	viscosity, w1 = 0.05 [mPa·s]
293.15 K	1009.22	1018.91	1497.2	1501.4	–	–
298.15 K	1007.51	1017.19	1511.2	1516.5	0.9618	1.011
303.15 K	1005.76	1015.45	1521.5	1526.6	0.8761	0.9129
308.15 K	1004.05	1013.72	1532.1	1537.7	0.7969	0.8285
313.15 K	1002.31	1011.98	1542.5	1547.7	0.7057	0.7457
318.15 K	1000.56	1010.23	1552	1557.2	0.6624	0.6946

O=C[C@H](O)[C@@H](O)[C@@H](O)CO [L-arabinose] + O
[1]
Settings	mass density, w1 = 0.025 [kg/m3]	mass density, w1 = 0.05 [kg/m3]	speed of sound, w1 = 0.025 [m/s]	speed of sound, w1 = 0.05 [m/s]	viscosity, w1 = 0.025 [mPa·s]	viscosity, w1 = 0.05 [mPa·s]
293.15 K	1007.35	1016.09	1491.4	1502.3	–	–
298.15 K	1005.77	1014.44	1506.7	1516.9	0.9141	0.9695
303.15 K	1004.18	1012.79	1517	1526.8	0.8116	0.8573
308.15 K	1002.6	1011.13	1528.6	1537.9	0.7304	0.7658
313.15 K	1001.01	1009.46	1536.8	1545.7	0.6591	0.689
318.15 K	999.43	1007.8	1543.1	1551.8	0.6006	0.6295

O [water]
[2]
Settings	speed of sound [m/s]	viscosity [mPa·s]
293.15 K	1483.6	–
298.15 K	–	0.8903
303.15 K	1508.4	0.7973
308.15 K	–	0.719
313.15 K	1526.8	0.6526
318.15 K	1533	0.5972

O [water] + N[C@@H](Cc1ccccc1)C(=O)O
[3]
Settings	speed of sound [m/s]	viscosity [mPa·s]
293.15 K	1483.6	–
298.15 K	–	0.8903
303.15 K	1508.4	0.7973
308.15 K	–	0.719
313.15 K	1526.8	0.6526
318.15 K	1533	0.5972

Settings	mass density [kg/m3]
[3], 308.15 K, Pycnometric method	994.07
